The values below come from ChEMBL document CHEMBL1146246, “Synthesis and structure-activity relationship of novel RXR antagonists: orally active anti-diabetic and anti-obesity agents” (Bioorg Med Chem Lett, 2007).

The target in series [1] is T1, Retinoic acid receptor RXR-alpha (Homo sapiens, UniProt P19793).
T1 sequence (P19793 whole entry): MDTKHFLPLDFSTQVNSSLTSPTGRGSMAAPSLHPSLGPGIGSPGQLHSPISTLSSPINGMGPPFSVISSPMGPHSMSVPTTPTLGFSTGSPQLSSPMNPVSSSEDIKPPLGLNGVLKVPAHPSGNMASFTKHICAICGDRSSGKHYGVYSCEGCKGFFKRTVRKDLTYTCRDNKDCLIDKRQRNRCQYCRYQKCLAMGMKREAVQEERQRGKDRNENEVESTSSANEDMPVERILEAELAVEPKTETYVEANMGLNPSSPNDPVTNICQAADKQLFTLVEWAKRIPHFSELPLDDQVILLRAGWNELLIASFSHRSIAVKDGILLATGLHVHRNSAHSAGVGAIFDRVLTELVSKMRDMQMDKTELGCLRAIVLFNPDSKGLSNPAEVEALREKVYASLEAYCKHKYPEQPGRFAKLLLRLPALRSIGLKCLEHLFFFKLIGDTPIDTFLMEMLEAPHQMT
Put plainly: Inhibition of 9-cis-retinoic acid-induced RXRalpha transactivation.

For series [2], the target named is T1, Retinoic acid receptor RXR-alpha. Put plainly: Inhibition of LG-100268-induced RXRalpha transactivation.
The species named for series [3] is Mus musculus. Put plainly: Decrease in plasma insulin concentration in obese/diabetic KKAy mouse. Type of series: ADME, organism-based.
Series [4] is filed under the species Mus musculus. The series can be described thus: Decrease in body weight gain in obese/diabetic KKAy mouse. The format is functional, organism-based.
For series [5], the species on record is Mus musculus. The series can be described thus: Decrease in plasma glucose concentration in obese/diabetic KKAy mouse. The format is ADME, organism-based.

Structures are written as SMILES. Active and inactive are the calls of the source. The calls are words filed in the database; no cut-off is given here.

For `CN1c2ccc(SCc3ccc(Cl)cc3)cc2N=C(c2ccc(C(=O)O)cc2)c2cc3c(cc21)C(C)(C)CCC3(C)C`, the IC50 in series [1] stood at 0.67 µM; in series [2], 1.6 µM.

As to `COc1ccc(S(=O)(=O)c2ccc3c(c2)N=C(c2ccc(C(=O)O)cc2)c2cc4c(cc2N3C)C(C)(C)CCC4(C)C)cc1`, the IC50 is 0.17 µM in series [1] and 0.36 µM in series [2].

As to `CC(=O)c1ccc2c(c1)N=C(c1ccc(C(=O)O)cc1F)c1cc3c(cc1N2C)C(C)(C)CCC3(C)C`, the IC50 in series [2] was 4.6 µM.

On to `COc1ccc(CS(=O)(=O)c2ccc3c(c2)N=C(c2ccc(C(=O)O)cc2)c2cc4c(cc2N3C)C(C)(C)CCC4(C)C)cc1`, for which the IC50 in series [1] was 0.78 µM; in series [2], 1.4 µM.

On to `CN1c2ccc(S(=O)(=O)N3CCCC3)cc2N=C(c2ccc(C(=O)O)cc2)c2cc3c(cc21)C(C)(C)CCC3(C)C`, for which the IC50 worked out at 0.45 µM in series [1] and 1 µM in series [2].

`CC(=O)c1ccc2c(c1)N=C(c1ccc(C(=O)O)c(F)c1)c1cc3c(cc1N2C)C(C)(C)CCC3(C)C`: the values for the IC50 in series [1] and in series [2] were 1.1 µM and 1.7 µM, respectively.

`CN1c2ccc(N3CCOCC3)cc2N=C(c2ccc(C(=O)O)cc2)c2cc3c(cc21)C(C)(C)CCC3(C)C`: the IC50 in series [1] was 3.9 µM; in series [2], 7 µM.

`CCCS(=O)(=O)c1ccc2c(c1)N=C(c1ccc(C(=O)O)cc1)c1cc3c(cc1N2C)C(C)(C)CCC3(C)C`: the IC50 came to 0.45 µM in series [1] and 0.92 µM in series [2].

For `CCN1c2ccc(C#N)cc2N=C(c2ccc(C(=O)O)cc2F)c2cc3c(cc21)C(C)(C)CCC3(C)C`, the IC50 in series [1] was found to be 0.53 µM; in series [2] it was 1.1 µM.

As to `CCN1c2ccc(C#N)cc2N=C(c2ccc(C(=O)O)cc2)c2cc3c(cc21)C(C)(C)CCC3(C)C`, the IC50 in series [1] came to 0.32 µM; in series [2] it was 0.48 µM.

In the case of `CSc1ccc2c(c1)N=C(c1ccc(C(=O)O)cc1)c1cc3c(cc1N2C)C(C)(C)CCC3(C)C`, the IC50 in series [1] came out at 2 µM; in series [2] it was 3 µM.

On to `CN1c2ccc(S(=O)(=O)N(C)C)cc2N=C(c2ccc(C(=O)O)cc2)c2cc3c(cc21)C(C)(C)CCC3(C)C`, for which the IC50 is 2 µM in series [1] and 2.2 µM in series [2].

As to `CCCN1c2ccc(C#N)cc2N=C(c2ccc(C(=O)O)cc2)c2cc3c(cc21)C(C)(C)CCC3(C)C`, the IC50 in series [1] and in series [2] was 2.1 µM throughout.

As for `CCN1c2ccc(C#N)cc2N=C(c2ccc(C(=O)O)c(F)c2)c2cc3c(cc21)C(C)(C)CCC3(C)C`, the result in the series listed under Mus musculus [3] and in the series filed under Mus musculus [5] was Active. In addition, the IC50 in series [1] was 0.5 µM; in series [2] it was 0.77 µM. In addition, in the series filed under Mus musculus [4], the result was Active.

Take `CN1c2ccc(S(C)(=O)=O)cc2N=C(c2ccc(C(=O)O)cc2)c2cc3c(cc21)C(C)(C)CCC3(C)C`: the IC50 in series [1] worked out at 1.4 µM; in series [2] it was 1.7 µM.

For the compound `CN1c2ccc(S(=O)(=O)Cc3ccc(Cl)cc3)cc2N=C(c2ccc(C(=O)O)cc2)c2cc3c(cc21)C(C)(C)CCC3(C)C`, the IC50 in series [1] was 0.42 µM; in series [2], 0.95 µM.

Regarding `COc1ccc(CSc2ccc3c(c2)N=C(c2ccc(C(=O)O)cc2)c2cc4c(cc2N3C)C(C)(C)CCC4(C)C)cc1`, the IC50 in series [1] amounted to 5.5 µM; in series [2], 4.9 µM.

Regarding `CN1c2ccc(C#N)cc2N=C(c2ccc(C(=O)O)c(F)c2)c2cc3c(cc21)C(C)(C)CCC3(C)C`, the results for the IC50 in series [1] and in series [2] were 0.52 µM and 1.2 µM, respectively.

Consider `COc1ccc(Sc2ccc3c(c2)N=C(c2ccc(C(=O)O)cc2)c2cc4c(cc2N3C)C(C)(C)CCC4(C)C)cc1`, for which the IC50 in series [1] is 0.72 µM; in series [2], 1.6 µM.

In the case of `CNS(=O)(=O)c1ccc2c(c1)N=C(c1ccc(C(=O)O)cc1)c1cc3c(cc1N2C)C(C)(C)CCC3(C)C`, the IC50 in series [1] and in series [2] was 1.3 µM in each case.

Regarding `CC(=O)c1ccc2c(c1)N=C(c1ccc(C(=O)O)cc1)c1cc3c(cc1N2C)C(C)(C)CCC3(C)C`, the IC50 in series [1] was 0.89 µM; in series [2] it was 1.1 µM.

On to `CCN1c2ccc(C(C)=O)cc2N=C(c2ccc(C(=O)O)cc2F)c2cc3c(cc21)C(C)(C)CCC3(C)C`, for which the IC50 in series [1] was determined as 3 µM; in series [2], 3.3 µM.

Regarding `CN1c2ccc(S(=O)(=O)N3CCOCC3)cc2N=C(c2ccc(C(=O)O)cc2)c2cc3c(cc21)C(C)(C)CCC3(C)C`, the half-inhibitory concentration (IC50) in series [1] is 0.45 µM; in series [2], 1 µM.

As for `CN1c2ccc(S(=O)(=O)c3ccc(OC(F)(F)F)cc3)cc2N=C(c2ccc(C(=O)O)cc2)c2cc3c(cc21)C(C)(C)CCC3(C)C`, the values for the IC50 in series [1] and in series [2] were 0.13 µM and 0.24 µM, respectively.

As for `CCCCNS(=O)(=O)c1ccc2c(c1)N=C(c1ccc(C(=O)O)cc1)c1cc3c(cc1N2C)C(C)(C)CCC3(C)C`, the IC50 was 0.19 µM in series [1] and 0.41 µM in series [2].

Take `CN1CCN(S(=O)(=O)c2ccc3c(c2)N=C(c2ccc(C(=O)O)cc2)c2cc4c(cc2N3C)C(C)(C)CCC4(C)C)CC1`: the IC50 in series [1] was 1 µM; in series [2], 1.9 µM.

In series [2], `CN1CCN(c2ccc3c(c2)N=C(c2ccc(C(=O)O)cc2)c2cc4c(cc2N3C)C(C)(C)CCC4(C)C)CC1` displayed an IC50 of 11 µM.

As for `CCN1c2ccc(C(C)=O)cc2N=C(c2ccc(C(=O)O)cc2)c2cc3c(cc21)C(C)(C)CCC3(C)C`, the IC50 was 0.79 µM in series [1] and 0.97 µM in series [2].

For `CN1c2ccc(S(=O)(=O)Nc3ccc(OC(F)(F)F)cc3)cc2N=C(c2ccc(C(=O)O)cc2)c2cc3c(cc21)C(C)(C)CCC3(C)C`, the values for the IC50 in series [1] and in series [2] were 0.46 µM and 0.96 µM, respectively.

`CN1c2ccc(C#N)cc2N=C(c2ccc(C(=O)O)cc2)c2cc3c(cc21)C(C)(C)CCC3(C)C`: the IC50 in series [1] turned out to be 0.43 µM; in series [2], 0.82 µM.

`CN1c2ccc(Sc3ccc(OC(F)(F)F)cc3)cc2N=C(c2ccc(C(=O)O)cc2)c2cc3c(cc21)C(C)(C)CCC3(C)C`: the results for the IC50 in series [1] and in series [2] were 0.39 µM and 1 µM, respectively.

The IC50 is the concentration that inhibits the measured activity by half. Read a low IC50 as inhibition by little substance.
